Data from US5672715A, “Herbicidal substituted 3-aryl-pyrazoles” (Monsanto Company, priority 1995, dated 1997).
Where two headings read alike, the source gives them in different places.

Legend:
Type in all cases: in vivo
Yellow Foxtail [1] = experiment: pre-emergence herbicide test; settings: Setaria, read-out: % plant inhibition
In short: (§1)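 Steps: compact topsoil in pan; place seeds; level-fill with cover soil; add a known amount of compound before or after covering; keep pans in greenhouse, bottom-watering as needed; rate % inhibition at about 14 days.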

Velvetleaf [2] = experiment: pre-emergence herbicide test
In short: as §1

Rice = experiment: pre-emergence herbicide test; settings: Oryza sativa, read-out: % plant inhibition
In short: as §1

Soybean [3] = experiment: pre-emergence herbicide test; settings: Glycine max, pre-emergence, read-out: % plant inhibition
In short: as §1

Cocklebur = experiment: pre-emergence herbicide test
In short: as §1

Corn [4] = experiment: pre-emergence herbicide test
In short: as §1

Morning Glory = experiment: pre-emergence herbicide test
In short: as §1

Yellow Nutsedge = experiment: pre-emergence herbicide test; settings: Cyperus, read-out: % plant inhibition
In short: as §1

Barnyardgrass [5] = experiment: pre-emergence herbicide test; settings: Echinochloa crus-galli, pre-emergence, read-out: % plant inhibition
In short: as §1

Yellow Foxtail [6] = experiment: post-emergence herbicide test; settings: Setaria, read-out: % plant inhibition
In short: (§2)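 Post-emergence activity is given as percent inhibition per species. Test compounds were atomizer-sprayed at 170.3 kPa, 1870 L/Ha carrier volume and roughly 0.4% v/v emulsifier onto greenhouse-raised plants aged two to three weeks, at the stated rates.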

Velvetleaf [7] = experiment: post-emergence herbicide test
In short: as §2

Soybean [8] = experiment: post-emergence herbicide test
In short: as §2

Corn [9] = experiment: post-emergence herbicide test; settings: Zea mays, post-emergence, read-out: % plant inhibition
In short: as §2

Wheat = experiment: post-emergence herbicide test
In short: as §2

Blackgrass = experiment: post-emergence herbicide test; settings: Alopecurus myosuroides, post-emergence, read-out: % plant inhibition; for inhibition at 7.95803 g/ha: 0.0071 lb/A; for inhibition at 40.0143 g/ha: 0.0357 lb/A; for inhibition at 1000.92 g/ha: 0.893 lb/A; for inhibition at 5043.82 g/ha: 4.5 lb/A
In short: as §2

Barnyardgrass [10] = experiment: post-emergence herbicide test; settings: Echinochloa crus-galli, post-emergence, read-out: % plant inhibition
In short: as §2

Cc1c(-c2cc(F)c([N+](=O)[O-])cc2F)nn(C)c1C(F)(F)F [Compound 35]
35%: inhibition at 1000.92 g/ha (Yellow Foxtail [1]; 0.893 lb/A) | % plant inhibition (Cocklebur; 0.893 lb/A) | inhibition at 1000.92 g/ha (Blackgrass; Table 5a)
100%: inhibition at 1000.92 g/ha (Velvetleaf [2]; Abutilon theophrasti, pre-emergence, 0.893 lb/A, read-out: % plant inhibition) | inhibition at 5043.82 g/ha (Velvetleaf [2]; Abutilon theophrasti, pre-emergence, 4.5 lb/A, read-out: % plant inhibition) | inhibition at 5043.82 g/ha (Velvetleaf [7]; Abutilon theophrasti, post-emergence, 4.5 lb/A, read-out: % plant inhibition)
55%: inhibition at 5043.82 g/ha (Soybean [3]; 4.5 lb/A) | inhibition at 1000.92 g/ha (Cocklebur; Xanthium strumarium, pre-emergence, 0.893 lb/A, read-out: % plant inhibition) | inhibition at 5043.82 g/ha (Corn [4]; Zea mays, pre-emergence, 4.5 lb/A, read-out: % plant inhibition) | inhibition at 5043.82 g/ha (Soybean [8]; Glycine max, post-emergence, 4.5 lb/A, read-out: % plant inhibition)
85%: inhibition at 1000.92 g/ha (Morning Glory; Ipomoea, pre-emergence, 0.893 lb/A, read-out: % plant inhibition) | inhibition at 5043.82 g/ha (Morning Glory; Ipomoea, pre-emergence, 4.5 lb/A, read-out: % plant inhibition)
25%: inhibition at 200.072 g/ha (Soybean [8]; Glycine max, post-emergence, 0.1785 lb/A, read-out: % plant inhibition) | inhibition at 5043.82 g/ha (Wheat; Triticum aestivum, post-emergence, 4.5 lb/A, read-out: % plant inhibition)
65%: inhibition at 5043.82 g/ha (Yellow Foxtail [6]; 4.5 lb/A) | inhibition at 5043.82 g/ha (Barnyardgrass [10]; 4.5 lb/A)
95%: inhibition at 5043.82 g/ha (Barnyardgrass [5]; 4.5 lb/A)
98%: % plant inhibition (Velvetleaf [2]; 0.893 lb/A)
45%: inhibition at 200.072 g/ha (Velvetleaf [7]; Abutilon theophrasti, post-emergence, 0.1785 lb/A, read-out: % plant inhibition) | inhibition at 5043.82 g/ha (Blackgrass; Table 5a)
40%: inhibition at 1000.92 g/ha (Soybean [3]; 0.893 lb/A)
75%: inhibition at 1000.92 g/ha (Velvetleaf [7]; Abutilon theophrasti, post-emergence, 0.893 lb/A, read-out: % plant inhibition) | inhibition at 5043.82 g/ha (Corn [9]; 4.5 lb/A)
80%: inhibition at 5043.82 g/ha (Yellow Foxtail [1]; 4.5 lb/A) | % plant inhibition (Morning Glory; 0.893 lb/A)
30%: inhibition at 5043.82 g/ha (Yellow Nutsedge; 4.5 lb/A) | % plant inhibition (Soybean [8]; 0.893 lb/A) | inhibition (Corn [9]; 0.1725 lb/A)
20%: inhibition at 200.072 g/ha (Yellow Foxtail [6]; 0.1785 lb/A) | inhibition (Soybean [8]; Glycine max, post-emergence, 0.1725 lb/A, read-out: % plant inhibition) | inhibition at 200.072 g/ha (Corn [9]; 0.1785 lb/A) | inhibition at 1000.92 g/ha (Wheat; Triticum aestivum, post-emergence, 0.893 lb/A, read-out: % plant inhibition)
90%: inhibition at 5043.82 g/ha (Cocklebur; Xanthium strumarium, pre-emergence, 4.5 lb/A, read-out: % plant inhibition)
70%: % plant inhibition (Velvetleaf [7]; 0.893 lb/A)
15%: % plant inhibition (Wheat; 0.893 lb/A)
0%: inhibition at 40.0143 g/ha (Yellow Foxtail [1]; 0.0357 lb/A) | inhibition at 200.072 g/ha (Yellow Foxtail [1]; 0.1785 lb/A) | inhibition at 40.0143 g/ha (Velvetleaf [2]; Abutilon theophrasti, pre-emergence, 0.0357 lb/A, read-out: % plant inhibition) | inhibition at 40.0143 g/ha (Rice; 0.0357 lb/A) | inhibition at 5043.82 g/ha (Rice; 4.5 lb/A) | inhibition at 40.0143 g/ha (Soybean [3]; 0.0357 lb/A) | inhibition at 200.072 g/ha (Soybean [3]; 0.1785 lb/A) | inhibition at 40.0143 g/ha (Cocklebur; Xanthium strumarium, pre-emergence, 0.0357 lb/A, read-out: % plant inhibition) | inhibition at 40.0143 g/ha (Corn [4]; Zea mays, pre-emergence, 0.0357 lb/A, read-out: % plant inhibition) | inhibition at 40.0143 g/ha (Morning Glory; Ipomoea, pre-emergence, 0.0357 lb/A, read-out: % plant inhibition) | inhibition at 40.0143 g/ha (Yellow Nutsedge; 0.0357 lb/A) | inhibition at 200.072 g/ha (Yellow Nutsedge; 0.1785 lb/A) | inhibition at 40.0143 g/ha (Barnyardgrass [5]; 0.0357 lb/A) | inhibition at 200.072 g/ha (Barnyardgrass [5]; 0.1785 lb/A) | inhibition at 7.95803 g/ha (Yellow Foxtail [6]; 0.0071 lb/A) | inhibition at 40.0143 g/ha (Yellow Foxtail [6]; 0.0357 lb/A) | inhibition at 7.95803 g/ha (Velvetleaf [7]; Abutilon theophrasti, post-emergence, 0.0071 lb/A, read-out: % plant inhibition) | inhibition at 40.0143 g/ha (Velvetleaf [7]; Abutilon theophrasti, post-emergence, 0.0357 lb/A, read-out: % plant inhibition) | inhibition at 7.95803 g/ha (Soybean [8]; Glycine max, post-emergence, 0.0071 lb/A, read-out: % plant inhibition) | inhibition at 40.0143 g/ha (Soybean [8]; Glycine max, post-emergence, 0.0357 lb/A, read-out: % plant inhibition) | inhibition at 7.95803 g/ha (Corn [9]; 0.0071 lb/A) | inhibition at 40.0143 g/ha (Corn [9]; 0.0357 lb/A) | inhibition at 7.95803 g/ha (Wheat; Triticum aestivum, post-emergence, 0.0071 lb/A, read-out: % plant inhibition) | inhibition at 40.0143 g/ha (Wheat; Triticum aestivum, post-emergence, 0.0357 lb/A, read-out: % plant inhibition) | inhibition at 7.95803 g/ha (Blackgrass; Table 4a) | inhibition at 7.95803 g/ha (Blackgrass; Table 5a) | inhibition at 40.0143 g/ha (Blackgrass; Table 4a) | inhibition at 40.0143 g/ha (Blackgrass; Table 5a) | inhibition (Blackgrass; 0.1725 lb/A, Table 4a) | inhibition at 200.072 g/ha (Blackgrass; 0.1785 lb/A, Table 4a) | inhibition at 1000.92 g/ha (Blackgrass; Table 4a) | inhibition at 5043.82 g/ha (Blackgrass; Table 4a) | inhibition at 7.95803 g/ha (Barnyardgrass [10]; 0.0071 lb/A) | inhibition at 40.0143 g/ha (Barnyardgrass [10]; 0.0357 lb/A) | inhibition at 200.072 g/ha (Barnyardgrass [10]; 0.1785 lb/A)
5%: % plant inhibition (Corn [4]; 0.1785 lb/A) | % plant inhibition (Wheat; 0.1785 lb/A)
